From US8466195B2, “Methods and compositions for treating complications of diabetes and vascular diseases using flavones” (Salk Institute for Biological Studies, priority 2009, dated 2013) come the findings set out here.

Holding throughout (format): cell-based
In one data set the test system is HT22 cells. The data set can be described thus: Oxidative glutamate toxicity (MTT cell viability). Conditions: Mus musculus, HT-22; 5 mM glutamate, 24 hours, MTT; read-out: EC50 oxid. glut. tox. The method, then:
Cell viability was determined by a modified version of 3-(4,5-dimethylthiazol-2-yl)-2,5-diphenyl tetrazolium bromide (MTT) assay based on the standard procedure (Hansen M B et al. J. Immunol. Methods 119:203-210, 1989). Briefly, cells were seeded onto 96-well microtiter plates at a density of 5×10^3 cells per well. The next day, the medium was replaced with DMEM supplemented with 7.5% DFCS and the cells were treated with the different fisetin derivatives alone or in the presence of 5 mM glutamate. Twenty four hours later, the medium in each well was aspirated and replaced with fresh medium containing 2.5 μg/ml MTT. After 4 hours of incubation at 37° C., cells were solubilized with 100 μA of a solution containing 50% dimethylformamide and 20% SDS (pH 4.7). The absorbance at 570 nm was measured on the following day with a microplate reader (Molecular Devices). Results obtained from the MTT assay correlated directly with the extent of cell death as confirmed visually. Controls employing wells without cells were used to determine the effects of the agents upon the assay chemistry.
As shown in panel (A) of FIG. 3, HT22 cells were untreated (ct) or treated with 10 μM fisetin (fis) in the absence of presence of 5 mM glutamate for 24 hr and GSH was measured enzymatically and normalized to protein. As shown in panel (B) of FIG. 3, HT22 cells in 96-well plates were treated with 5 mM glutamate and the indicated concentrations of fisetin. MTT reduction was measured after 24 hr.

Data set [1] relates to cells treated with 20 μM iodoacetic acid (IAA). In words: In vitro ischemia (iodoacetic acid, MTT cell viability). Particulars: 20 μM IAA 2 h, MTT 20 h later. The method, then:
Briefly, cells were seeded onto 96-well microtiter plates at a density of 5×10^3 cells per well. The next day, the medium was replaced with DMEM supplemented with 7.5% DFCS and the cells were treated with 20 μM iodoacetic acid (IAA) alone or in the presence of the different fisetin derivatives. After 2 h the medium in each well was aspirated and replaced with fresh medium without IAA but containing the fisetin derivatives. 20 h later, the medium in each well was aspirated and replaced with fresh medium containing 2.5 μg/ml MTT. After 4 h of incubation at 37° C., cells were solubilized with 100 μl of a solution containing 50% dimethylformamide and 20% SDS (pH 4.7). The absorbance at 570 nm was measured on the following day with a microplate reader (Molecular Devices). Results obtained from the MTT assay correlated directly with the extent of cell death as confirmed visually. Controls included compound alone to test for toxicity and compound with no cells to test for interference with the assay chemistry.

The test system of a further data set is HT-22 nerve cells. In words: HT-22 nerve cells exposed to glutamate: MG adducts and viability. The method, then: HT-22 nerve cells were exposed to 0.5 mM glutamate and Glo-1 expression monitored at 8 and 24 hrs. In panel (B) of FIG. 2, Fisetin is shown to prevent both cell death and protein glycation. HT-22 cells were exposed to 5 mM glutamate in the presence or absence of 2 μM fisetin. MG adducts were determined by Western blotting 8 hrs after glutamate exposure and viability after 24 hrs. Actin is at the bottom of the blot. In panel (C) of FIG. 2, the Glo-1 inhibitor s-p-bromobenzylglutathione […] is shown to potentiate cell death. HT-22 cells were exposed to 1 mM glutamate plus or minus 10 or 20 μM BBGD.

Take `CCOc1ccc(-c2oc3cc(C)c(C)cc3c(=O)c2O)cc1OCC`: the EC50 was less than 10000 nM with HT22 cells and less than 1000 nM in data set [1].

For `Cc1cc2oc(-c3ccc(O)c(O)c3)cc(=O)c2cc1C`, the EC50 in the data set with HT22 cells was less than 10000 nM; in data set [1], less than 1000 nM. Consider `O=c1c(O)c(-c2ccc(O)c(O)c2)oc2cc(O)ccc12` [drawing 10], for which the results for the 50% effective concentration (EC50) (in the data set with HT22 cells; in data set [1]) were less than 10000 nM and more than 1000 nM, respectively. The matching figures for `Cc1cc2oc(-c3ccc(O)c(O)c3)c(O)c(=O)c2cc1C`: less than 10000 nM and less than 1000 nM.

Regarding `COc1cc2oc(-c3ccc(O)c(O)c3)c(O)c(=O)c2cc1OC`, the EC50 in the data set on HT22 cells is less than 10000 nM; in data set [1], more than 1000 nM.

On to `COc1cccc(-c2oc3cc(OC)c(OC)cc3c(=O)c2O)c1`, for which the EC50 is less than 10000 nM in the data set on HT22 cells and 1000 nM in data set [1]. The like results for `COc1cc2oc(-c3ccc(O)c(O)c3)cc(=O)c2cc1OC` were, in that order, less than 10000 nM and less than 1000 nM. On to `N[C@@H](CCC(=O)N[C@@H](CSCc1ccc(Br)cc1)C(=O)NCC(=O)O)C(=O)O` [BBGD, s-p-bromobenzylglutathione, reference compound], for which the “toxicity in the absence of glutamate” value in the data set with HT-22 nerve cells (20 μM BBGD, no glutamate) was “only mildly toxic”. Besides, in the data set with HT-22 nerve cells (1 mM glutamate plus 10 or 20 μM BBGD), the “cell death in the presence of glutamate” value is “greatly potentiates cell death”. In turn, `CCOc1ccc(-c2cc(=O)c3cc(C)c(C)cc3o2)cc1OCC` displayed an EC50 in data set [1] of more than 1000 nM. `CCOc1ccc(-c2oc3cc(OC)c(OC)cc3c(=O)c2O)cc1OCC`: the EC50 with HT22 cells was less than 10000 nM; in data set [1] it was more than 1000 nM.

On to `O=c1cc(-c2ccc(O)c(O)c2)oc2cc(O)c(O)cc12`, for which the results for the EC50 (with HT22 cells; in data set [1]) were more than 10000 nM and more than 1000 nM, respectively. The matching figures for `O=c1c(O)c(-c2ccc(O)c(O)c2)oc2cc(O)c(O)cc12`: less than 10000 nM and more than 1000 nM.

In general, EC50 refers to the midpoint of the concentration-response curve.
